# Reference: patent US20090099199A1, “ORGANIC COMPOUNDS” (priority 2007, published 2009)
# Counter-ions that a name gives are not always drawn.
# Target: T1, recombinant human NPY Y2 receptors (Homo sapiens, UniProt P49146)
# T1 construct: expressed in transfected cells; host or cells: CHO-C4 cells (membrane preparation)
# T1 sequence (P49146 1-381): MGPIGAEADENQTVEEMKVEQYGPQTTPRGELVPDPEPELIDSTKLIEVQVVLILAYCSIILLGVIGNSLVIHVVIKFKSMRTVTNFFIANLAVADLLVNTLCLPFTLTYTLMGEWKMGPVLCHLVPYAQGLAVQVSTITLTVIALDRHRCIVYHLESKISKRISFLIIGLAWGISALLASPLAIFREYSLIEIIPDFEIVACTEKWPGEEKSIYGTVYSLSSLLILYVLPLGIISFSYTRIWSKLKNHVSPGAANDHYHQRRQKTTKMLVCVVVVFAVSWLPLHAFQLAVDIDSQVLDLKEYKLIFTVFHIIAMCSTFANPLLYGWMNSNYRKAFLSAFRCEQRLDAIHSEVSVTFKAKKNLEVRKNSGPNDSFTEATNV
# Experiment: Scintillation proximity [35S]GTPγS binding assay (inhibition of 0.5 nM NPY-stimulated [35S]GTPγS binding)
# Assay type: biochemical
# Settings: 10 μM compound, membranes from CHO-C4 cells expressing recombinant human NPY Y2 receptors, read-out: [%] inhibiton at 10 μM
# Protocol: Preparation of Membranes: CHO-C4 cells expressing recombinant human NPY Y2 receptors were used to prepare membranes for the GTPγS assay. Cells were grown to 80-95% confluency on 15-cm (225 cm^2) tissue culture plates. After aspiration of the culture medium, cells were washed twice with 18 ml ice-cold phosphate-buffered saline (PBS), scraped off and suspended in 3 ml ice-cold PBS in pre-cooled centrifuge tubes. The dishes were rinsed with 2 ml ice-cold PBS per dish and the washings were combined with the PBS cell suspension from above. Cells pooled from 5-7 dishes were centrifuged for 5 min at 10,000 rpm (12,000 g) in a Sorvall RC5B centrifuge using an SS34 rotor at 4° C. The cell pellet was resuspended in 5 ml ice-cold buffer (20 mM HEPES, 10 mM EDTA; pH 7.4) by vortexing (2-5 sec), homogenized using a Polytron (step 4 for 20-30 sec), and ice-cold buffer added to 25 ml. The suspension was centrifuged again for 20 min at 18,000 rpm (39,000 g) at 4° C. and the pellet resuspended in 5 ml ice-cold buffer (20 mM HEPES, 0.1 mM EDTA; pH 7.4) by vortexing (2-5 sec), homogenized with a Polytron (step 4 for 10 sec), and ice-cold buffer added to 25 ml. The suspension was centrifuged a third time for 20 min at 18,000 rpm (39,000 g) at 4° C. The pellet was resuspend in 1 ml ice-cold buffer (20 mM HEPES, 0.1 mM EDTA; pH 7.4) by vortexing (5-8 sec). Two to five resuspended pellets were combined and homogenized using a Polytron (step 4 for 15-25 sec). A small aliquot (20-50 μl) was removed for protein determination by the Coomassie Plus Protein Assay Reagent (Pierce) using BSA as standard. The membrane suspension was aliquoted in pre-cooled (on dry ice) Eppendorf tubes (0.25-1 ml/tube affording approximately 0.5-2 mg of membrane protein/tube). The pellets were frozen and stored at −80° C.
# Scintillation proximity [^35S]GTPγS binding assay: Frozen membranes from CHO-C4 cells expressing recombinant human NPY Y2 receptors (2 mg for four 96-well plates) were thawed on ice. Thawed membranes were pipetted into 10 ml of assay buffer (20 mM HEPES, 10 mM MgCl2, 100 mM NaCl, pH 7.4) and homogenized briefly using a Polytron. The final assay mixture was prepared in 96-well microtiter plates (Isoplate Wallac, Perkin Elmer). The composition of the assay mixtures in a final volume of 250 μl per well was as follows: 20 mM HEPES, 10 mM MgCl2, 100 mM NaCl, pH 7.4, 30 μM GDP, 1 mg/ml BSA (added fresh), 5 μg membrane protein, 1.5 mg Wheatgerm agglutinin SPA beads (Amersham), 0.45 nM [^35S]GTPγS (Amersham, SJ1308. 1000 Ci/mmol, stabilized solution), and the test compounds (agonists and/or antagonists) at the appropriate concentrations. The samples were incubated at room temperature for 90 min by shaking, after which the SPA beads were sedimented by centrifugation in an Eppendorf 5804 centrifuge at 2700 rpm for 10 min at room temperature. After 60 min the plates were counted in a TopCount (Canberra). Basal [^35S]GTPγS binding was measured in the absence of agonist (NPY). Non-specific binding was measured in the presence of excess (10 μM) unlabelled GTPγS (Sigma). Nonspecific binding never exceeded 10% of basal binding and was thus not subtracted from the experimental data. Antagonists were tested for the inhibition of 0.5 nM NPY-stimulated [^35S]GTPγS binding. Antagonist inhibition curves were analyzed by non-linear regression using GraphPad Prism software (Version 4.0, GraphPad Software Inc., CA, USA).
# Antagonistic activity of compounds of the present invention is examined by the Scintillation proximity [^35S]GTPγS binding assay as described above (inhibition of 0.5 nM NPY-stimulated [^35S]GTPγS binding). The table below represents percentages of inhibition at a concentration of 10 μM.
row,SMILES,inhibition at 10 µM [%]
1,"Cc1noc(C)c1NC(=O)Nc1ccc(N2CCN(C(c3ccccc3)c3ccccc3)CC2)c(C#N)c1 [Compound 1, 1-[4-(4-Benzhydryl-piperazin-1-yl)-3-cyano-phenyl]-3-(3,5-dimethyl-isoxazol-4-yl)-urea]",95
2,"N#Cc1cc(NC(=O)C2CCOC2)ccc1N1CCN(C(c2ccccc2)c2ccccc2)CC1 (centres unmarked) [Compound 2, Tetrahydro-furan-3-carboxylic acid [4-(4-benzhydryl-piperazin-1-yl)-3-cyano-phenyl]-amide]",89
3,"CCC(CC)C(=O)Nc1ccc(N2CCN(C(c3ccccc3)c3ccccc3)CC2)c(C#N)c1 [Compound 3, N-[4-(4-Benzhydryl-piperazin-1-yl)-3-cyano-phenyl]-2-ethyl-butyramide]",88
4,"Cc1noc(C)c1NC(=O)Nc1ccc(N2CCN(C(c3ccccc3)c3ccccc3)CC2)c(F)c1 [Compound 4, 1-[4-(4-Benzhydryl-piperazin-1-yl)-3-fluoro-phenyl]-3-(3,5-dimethyl-isoxazol-4-yl)-urea]",89
5,O=C(Nc1ccc(N2CCN(C(c3ccccc3)c3ccccc3)CC2)c(F)c1)C1CCOC1 (centres unmarked) [Compound 5],85
6,CCC(CC)C(=O)Nc1ccc(N2CCN(C(c3ccccc3)c3ccccc3)CC2)c(F)c1 [Compound 6],89
7,Cc1noc(C)c1NC(=O)Nc1ccc(N2CCN(C(c3ccc(F)cc3)c3ccc(F)cc3)CC2)c(C#N)c1 [Compound 7],87
8,"Cc1noc(C)c1NC(=O)Nc1ccc(N2CCN(C(c3ccc(F)cc3)c3ccc(F)cc3)CC2)c(F)c1 [Compound 8, 1-(4-{4-[Bis-(4-fluoro-phenyl)-methyl]-piperazin-1-yl}-3-fluoro-phenyl)-3-(3,5-dimethyl-isoxazol-4-yl)-urea]",86
9,"Cc1noc(C)c1C(=O)Nc1ccc(N2CCN(C(c3ccccc3)c3ccccc3)CC2)c(F)c1 [Compound 9, 3,5-Dimethyl-isoxazole-4-carboxylic acid [4-(4-benzhydryl-piperazin-1-yl)-3-fluoro-phenyl]-amide]",85
10,"Cc1ncccc1C(=O)Nc1ccc(N2CCN(C(c3ccccc3)c3ccccc3)CC2)c(F)c1 [Compound 10, N-[4-(4-Benzhydryl-piperazin-1-yl)-3-fluoro-phenyl]-2-methyl-nicotinamide]",85
11,"Cn1cccc1C(=O)Nc1ccc(N2CCN(C(c3ccccc3)c3ccccc3)CC2)c(F)c1 [Compound 11, 1-Methyl-1H-pyrrole-2-carboxylic acid [4-(4-benzhydryl-piperazin-1-yl)-3-fluoro-phenyl]-amide]",62
12,"Cn1nccc1C(=O)Nc1ccc(N2CCN(C(c3ccccc3)c3ccccc3)CC2)c(F)c1 [Compound 12, 2-Methyl-2H-pyrazole-3-carboxylic acid [4-(4-benzhydryl-piperazin-1-yl)-3-fluoro-phenyl]-amide]",65
13,Cc1noc(C)c1NC(=O)Nc1ccc(N2CCC(C(c3ccccc3)c3ccccc3)CC2)c(C#N)c1 [Compound 13],91
14,"N#Cc1cc(NC(=O)C2CCOC2)ccc1N1CCC(C(c2ccccc2)c2ccccc2)CC1 (centres unmarked) [Compound 14, Tetrahydro-furan-3-carboxylic acid [4-(4-benzhydryl-piperidin-1-yl)-3-cyano-phenyl]-amide]",90
15,"CCC(CC)C(=O)Nc1ccc(N2CCC(C(c3ccccc3)c3ccccc3)CC2)c(C#N)c1 [Compound 15, N-[4-(4-Benzhydryl-piperidin-1-yl)-3-cyano-phenyl]-2-ethyl-butyramide]",86
16,"Cc1noc(C)c1NC(=O)Nc1ccc(N2CCC(C(c3ccccc3)c3ccccc3)CC2)c(F)c1 [Compound 16, 1-[4-(4-Benzhydryl-piperidin-1-yl)-3-fluoro-phenyl]-3-(3,5-dimethyl-isoxazol-4-yl)-urea]",90
17,"O=C(Nc1ccc(N2CCC(C(c3ccccc3)c3ccccc3)CC2)c(F)c1)C1CCOC1 (centres unmarked) [Compound 17, Tetrahydro-furan-3-carboxylic acid [4-(4-benzhydryl-piperidin-1-yl)-3-fluoro-phenyl]-amide]",86
18,"CCC(CC)C(=O)Nc1ccc(N2CCC(C(c3ccccc3)c3ccccc3)CC2)c(F)c1 [Compound 18, N-[4-(4-Benzhydryl-piperidin-1-yl)-3-fluoro-phenyl]-2-ethyl-butyramide]",85
19,"CCC(CC)c1nc2cc(N3CCN(C(c4ccccc4)c4ccccc4)CC3)c(F)cc2[nH]1 [Compound 19, 5-(4-Benzhydryl-piperazin-1-yl)-2-(1-ethyl-propyl)-6-fluoro-1H-benzoimidazole]",82
20,"Fc1cc2[nH]c(C3CCOC3)nc2cc1N1CCN(C(c2ccccc2)c2ccccc2)CC1 (centres unmarked) [Compound 20, 5-(4-Benzhydryl-piperazin-1-yl)-6-fluoro-2-(tetrahydro-furan-3-yl)-1H-benzoimidazole]",53
21,"Cc1noc(C)c1-c1nc2cc(N3CCN(C(c4ccccc4)c4ccccc4)CC3)c(F)cc2[nH]1 [Compound 21, 5-(4-Benzhydryl-piperazin-1-yl)-2-(3,5-dimethyl-isoxazol-4-yl)-6-fluoro-1H-benzoimidazole]",44
22,"Cc1noc(C)c1Nc1nc2cc(N3CCN(C(c4ccccc4)c4ccccc4)CC3)c(F)cc2[nH]1 [Compound 22, [5-(4-Benzhydryl-piperazin-1-yl)-6-fluoro-1H-benzoimidazol-2-yl]-(3,5-dimethyl-isoxazol-4-yl)-amine triluoroacetate salt]",71
23,"CCC(CC)Nc1nc2cc(N3CCN(C(c4ccccc4)c4ccccc4)CC3)c(F)cc2[nH]1 [Compound 23, 5-(4-Benzhydryl-piperazin-1-yl)-6-fluoro-1H-benzoimidazol-2-yl]-(1-ethyl-propyl)-amine triluoroacetate salt]",72
24,"CCC(CC)C(=O)Nc1ccc(N2CCC(C(c3ccccn3)c3ccccn3)CC2)c(F)c1 [Compound 24, N-{4-[4-(Di-pyridin-2-yl-methyl)-piperidin-1-yl]-3-fluoro-phenyl}-2-ethyl-butyramide]",95
25,"CCC(CC)C(=O)Nc1ccc(N2CCN(C(c3ccccn3)[C@H]3CCCO3)CC2)c(F)c1 (stereo partly drawn) [Compound 25, 2-Ethyl-N-{3-fluoro-4-[4-((R)-pyridin-2-yl-tetrahydro-furan-2-yl-methyl)-piperazin-1-yl]-phenyl}-butyramide]",90

# System: rats
# Experiment: not given
# Settings: icv administration (Thorsell et al. Neurosci. Lett. 2002); cited from earlier work
row,SMILES,ethanol self-administration
1,N=C(N)NCCC[C@H](NC(=O)CC1(CC(=O)N2CCN(C3c4ccccc4NC(=O)c4ccccc43)CC2)CCCC1)C(=O)NCCn1c(=O)n(-c2ccccc2)n(-c2ccccc2)c1=O (some centres unmarked) [BIIE0246],dose dependently reduced ethanol self-administration
